Experimental data from US20250179436A1, “HUMAN FATTY-LIVER MODEL CELLS” (PhoenixBio Co., Ltd., priority 2019, published 2025).

Columns and labels:
[1] = system: PXB-cells; assay: Fat droplets in PXB-cells cultured in medium with or without DMSO (photomicrograph); type: cell-based, human; details: 2% DMSO, PXB-cells cultured 5 days
Experimental: The following day of seeding, medium A was removed. Instead, 500 μL of medium B (DMSO (+)) or medium C (DMSO (−)) was added. The plate was gently placed in an incubator (37° C., 5% CO2) and the cells were cultured for 5 days. After completion of culture, an image of the cells was taken by a photomicrographic camera. Then, the culture supernatant was recovered and subjected to analysis for lipoprotein in the culture supernatant described below.

[2] = system: PXB-cells; assay: Total neutral fat of lipoproteins in culture supernatant of PXB-cells cultured with or without DMSO; type: cell-based, human; details: 2% DMSO, PXB-cells cultured 5 days
Experimental: The following day of seeding, medium A was removed. Instead, 500 μL of medium B (DMSO (+)) or medium C (DMSO (−)) was added. The plate was gently placed in an incubator (37° C., 5% CO2) and the cells were cultured for 5 days. After completion of culture, an image of the cells was taken by a photomicrographic camera. Then, the culture supernatant was recovered and subjected to analysis for lipoprotein in the culture supernatant described below. Lipoproteins contained in the culture supernatants of PXB-cells, HepG2 cells and HuH7 cells were analyzed by using LipoSEARCH (registered trademark) method (Skylight Biotech, Inc.). After completion of the culture mentioned above, the medium used in the culture was removed and 500 μL of medium D for analysis was added. The culture plate was gently placed in an incubator (37° C., 5% CO2) and the cells were cultured for 2 days. Thereafter, the culture supernatant was recovered, lipoproteins contained in the culture supernatant (80 μL) were fractionated into 4 types of subgroups, CM, VLDL, LDL and HDL fractions, by gel filtration HPLC. Cholesterol and neutral fat (triglyceride) contained in individual fractions were quantified by online enzyme reactions. […]

[3] = system: PXB-cells; assay: Screening test: total cholesterol and total neutral fat (triglyceride) in culture supernatant of PXB-cells (LipoSEARCH); type: cell-based, human; details: lomitapide 1, 10, 100 μM, 2 days; PXB-cells pre-cultured 12 days in medium B (DMSO (+)); vs ethanol control
Experimental: Lipoproteins contained in the culture supernatants of PXB-cells, HepG2 cells and HuH7 cells were analyzed by using LipoSEARCH (registered trademark) method (Skylight Biotech, Inc.).
After completion of the culture mentioned above, the medium used in the culture was removed and 500 μL of medium D for analysis was added. The culture plate was gently placed in an incubator (37° C., 5% CO2) and the cells were cultured for 2 days. Thereafter, the culture supernatant was recovered, lipoproteins contained in the culture supernatant (80 μL) were fractionated into 4 types of subgroups, CM, VLDL, LDL and HDL fractions, by gel filtration HPLC. Cholesterol and neutral fat (triglyceride) contained in individual fractions were quantified by online enzyme reactions. […]
Each test substance was suspended with ethanol and added in a predetermined amount to a PXB-cell culture, gently placed in an incubator (37° C., 5% CO2) and cultured for 2 days. After completion of culture, the total cholesterol and total neutral fat (triglyceride) in culture supernatant and in cells were measured in accordance with the methods described in the sections “Analysis of lipoprotein in culture supernatant” and “Analysis of lipoprotein in cells”. […]

[4] = system: PXB-cells; assay: Screening test: total cholesterol and total neutral fat (triglyceride) in PXB-cells (Cholestest); type: cell-based, human; details: lomitapide 1, 10, 100 μM, 2 days; PXB-cells pre-cultured 12 days in medium B (DMSO (+)); vs ethanol control
Experimental: Triglyceride in cells was measured by use of Cholestest (registered trademark) TG (Sekisui Medical Co., Ltd.) in accordance with the instruction by the manufacturer. More specifically, the cells were washed with PBS, and then, completely dewatered (stored at −80° C. until measurement). To each well containing the cells, 200 μL of TG enzyme solution (1) was added. A reaction was allowed to proceed while keeping the cells warm at 37° C. for 10 minutes (free glycerol was removed). Then, the cells were torn away by pipetting, transferred to a centrifuge tube and centrifuged at 10,000 rpm×10 minutes. Then, the supernatant (7.5 μL) was transferred to a 96-well microplate. […] The resultant reaction product was subjected to measurement of absorbance at 550 nm. The content of triglyceride was calculated based on HDL-C180A as the reference (triglyceride concentration of HDL-C180A was 52.26 mg/dL).
Intracellular cholesterol was measured by use of Cholestest (registered trademark) CHO (Sekisui Medical Co., Ltd.) in accordance with the instruction by the manufacturer. […] The resultant reaction product was subjected to measurement of absorbance at 550 nm. The content of cholesterol was calculated based on HDL-C180A as the standard ([…] concentration of HDL-C180A was 152.67 mg/dL). […]

[5] = system: PXB-cells; assay: Human albumin content in culture supernatant of PXB-cells (immunoturbidimetric method), toxicity index; type: cell-based; details: 2 days

**Q.** How did the “number of fat droplets, medium B (DMSO (+)) compared to medium C (DMSO (−))” value [1] turn out when `C[S+](C)[O-]` [DMSO, dimethyl sulfoxide] was run?
**A.** The value was “about double”.

**Q.** What about the “secretion of total neutral fat (triglyceride) in lipoproteins, medium B (DMSO (+)) relative to medium C (DMSO (−))” value [2] of the same compound?
**A.** Its value is “about 9 times”.

**Q.** How did the “total cholesterol content in the culture supernatants” value [3] turn out when `O=C(NC1CCN(CCCCC2(C(=O)NCC(F)(F)F)c3ccccc3-c3ccccc32)CC1)c1ccccc1-c1ccc(C(F)(F)F)cc1` [lomitapide] was run?
**A.** Its value is “significantly decreased”.

**Q.** And the “total neutral fat (triglyceride) content in the culture supernatants” value [3]?
**A.** The value was “significantly decreased”.

**Q.** And the “total cholesterol content in the cells” value [4]?
**A.** Its value is “no significant decrease”.

**Q.** And the “total neutral fat (triglyceride) content in the cells” value [4]?
**A.** Its value is “no significant decrease”.

**Q.** What about the “content of human albumin in the culture supernatant” value ([5]; lomitapide 1, 10, 100 μM, PXB-cells in medium B (DMSO (+))) of the same compound?
**A.** The value was “decreased depending on the addition amount”.

**Q.** And the “toxicity (based on human albumin content)” value ([5]; lomitapide, high amount (1-100 μM tested), PXB-cells)?
**A.** The value was “toxic”.

**Q.** For `CCC(C)(C)C(=O)O[C@H]1C[C@@H](C)C=C2C=C[C@H](C)[C@H](CC[C@@H]3C[C@@H](O)CC(=O)O3)[C@H]21` [simvastatin], which “human albumin content in the culture supernatant” value ([5]; simvastatin 0.1, 1, 10 μM, PXB-cells in medium B (DMSO (+))) is on record?
**A.** Its value is “no significant decrease”.
